Target: GABA-B receptor (Rattus norvegicus (Rat), UniProt O88871+Q9Z0U4)
Assay: [35S]GTPgS Binding Assay (rat brain cortex membranes, native receptor)
Type: biochemical
Details: rat cortical membranes; in the presence of 1 μM GABA (EC25); basal binding 0%, maximal binding (1 mM GABA) 100%
Experimental: Preparation of Rat Brain Membranes for Native Receptor Assays
Membranes from rat brain cortex were prepared as described in detail by Olpe et al. and stored at concentrations of 1.66 mg/mL protein at −80° C. until required. (Olpe, H.-R, et al. Eur J Pharmacol 1990; 187: 27-38).
[^35S]GTPgS Binding Assay
The samples were incubated at room temperature for 60 minutes on a shaker. The incubation was stopped by rapid vacuum filtration over glass-fiber filter plates (UniFilter-96 well, GF/B membrane plates, PerkinElmer) using a 96-well plate harvester (TOMTEK© Harvester). The UniFilter plate was washed five times with ice-cold wash buffer (50 mM Tris-HCl buffer, pH 7.7, 10 mM MgCl2, and 100 mM NaCl. After filtration the plate was dried for 90 minutes at 55° C. The plates were closed on the bottom with black sealing membranes, and liquid scintillation cocktail (35 μL, Betaplate Scint, PerkinElmer) was added to each well. After sealing the top of the plate, an additional incubation step of 90 minutes at room temperature followed before measuring the plate. The amount of membrane-bound [^35S]GTPgS was measured using a 96-well plate reader (Microbeta®, PerkinElmer). Nonspecific binding was measured in the presence of unlabeled 10 μM of GTPgS (Millipore) and without GABA. Basal binding was measured in the absence of 1 μM GABA, and maximal binding was measured in the presence of GABA using 1 mM GABA concentrations.
Data analysis. The concentration-response curves of compounds of the present disclosure in the presence of EC25 of GABA-B receptor agonist were generated using the GraphPad Prism® program (GraphPad Software, San Diego, Calif.). Data was normalized using basal binding as 0% and maximal binding as 100%. The curves were fitted by nonlinear regression allowing determination of EC50 values from sigmoidal dose-response curves. Each curve was performed using triplicate sample per date point and 10 concentrations.

GABA-B receptor, sequence (Q9Z0U4 17-960): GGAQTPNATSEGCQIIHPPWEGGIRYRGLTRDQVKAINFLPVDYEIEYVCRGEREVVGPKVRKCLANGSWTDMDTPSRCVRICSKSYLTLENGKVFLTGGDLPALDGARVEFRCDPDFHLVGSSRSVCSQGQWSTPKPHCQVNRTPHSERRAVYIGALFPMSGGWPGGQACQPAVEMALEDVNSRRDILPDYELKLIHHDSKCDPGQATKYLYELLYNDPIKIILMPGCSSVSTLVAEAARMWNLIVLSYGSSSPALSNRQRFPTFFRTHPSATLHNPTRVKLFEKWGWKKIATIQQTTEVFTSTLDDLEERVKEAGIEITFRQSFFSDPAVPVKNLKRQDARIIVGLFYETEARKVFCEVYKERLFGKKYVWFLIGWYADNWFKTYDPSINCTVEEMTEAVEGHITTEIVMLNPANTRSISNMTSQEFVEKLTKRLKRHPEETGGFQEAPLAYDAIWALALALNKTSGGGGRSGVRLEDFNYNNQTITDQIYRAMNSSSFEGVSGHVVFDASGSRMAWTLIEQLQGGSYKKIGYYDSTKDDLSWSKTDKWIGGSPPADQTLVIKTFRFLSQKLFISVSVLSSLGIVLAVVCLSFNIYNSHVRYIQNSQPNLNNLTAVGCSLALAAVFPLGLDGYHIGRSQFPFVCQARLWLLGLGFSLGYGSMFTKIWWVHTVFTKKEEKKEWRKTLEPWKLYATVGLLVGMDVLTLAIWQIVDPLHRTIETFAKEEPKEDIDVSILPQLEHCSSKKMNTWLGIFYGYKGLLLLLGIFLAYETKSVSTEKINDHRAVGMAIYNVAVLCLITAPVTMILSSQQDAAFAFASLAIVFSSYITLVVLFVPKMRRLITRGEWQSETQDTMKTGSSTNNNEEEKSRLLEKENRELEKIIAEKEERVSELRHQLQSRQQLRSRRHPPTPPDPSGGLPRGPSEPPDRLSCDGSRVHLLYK
GABA-B receptor, sequence (O88871 41-940): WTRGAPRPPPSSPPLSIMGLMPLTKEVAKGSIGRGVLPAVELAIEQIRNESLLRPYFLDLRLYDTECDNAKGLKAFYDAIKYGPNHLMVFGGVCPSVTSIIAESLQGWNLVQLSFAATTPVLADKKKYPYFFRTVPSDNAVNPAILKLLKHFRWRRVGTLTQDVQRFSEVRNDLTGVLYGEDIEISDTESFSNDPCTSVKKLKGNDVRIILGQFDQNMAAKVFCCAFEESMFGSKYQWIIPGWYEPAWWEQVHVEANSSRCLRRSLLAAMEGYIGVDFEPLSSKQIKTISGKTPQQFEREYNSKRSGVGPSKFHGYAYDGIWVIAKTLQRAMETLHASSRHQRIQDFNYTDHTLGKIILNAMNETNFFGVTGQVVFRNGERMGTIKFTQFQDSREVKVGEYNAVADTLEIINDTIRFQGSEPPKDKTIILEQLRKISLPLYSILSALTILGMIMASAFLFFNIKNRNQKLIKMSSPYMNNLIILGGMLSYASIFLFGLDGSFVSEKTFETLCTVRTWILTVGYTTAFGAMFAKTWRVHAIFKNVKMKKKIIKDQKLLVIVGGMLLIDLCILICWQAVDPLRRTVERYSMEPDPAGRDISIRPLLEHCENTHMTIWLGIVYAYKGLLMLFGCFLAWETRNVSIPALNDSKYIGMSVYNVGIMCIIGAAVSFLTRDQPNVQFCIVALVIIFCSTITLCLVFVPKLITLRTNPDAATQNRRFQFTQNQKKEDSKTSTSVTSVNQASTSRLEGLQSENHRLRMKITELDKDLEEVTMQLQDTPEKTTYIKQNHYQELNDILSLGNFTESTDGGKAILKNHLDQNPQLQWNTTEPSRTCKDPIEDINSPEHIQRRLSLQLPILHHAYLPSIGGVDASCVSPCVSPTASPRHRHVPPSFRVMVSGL

**Q.** How did the EC50 turn out when `COc1ccc(NC(C)=O)cc1-c1nn([C@H](C)c2ccc(Cl)cc2)c(=O)c2c(C)noc12` [Example 40, N-(3-{5-[(1R)-1-(4-chlorophenyl)ethyl]-3-methyl-4-oxo-4,5-dihydro[1,2]oxazolo[4,5-d]pyridazin-7-yl}-4-methoxyphenyl)acetamide] was run?
**A.** The EC50 was greater than 10 µM.

**Q.** Which EC50 does the source give for `COc1ccc(OC)c(-c2nn(C(C)c3ccc(Cl)cc3)c(=O)c3c(C)noc23)c1` (stereo not drawn) [Example 21, 5-[1-(4-chlorophenyl)ethyl]-7-(2,5-dimethoxyphenyl)-3-methyl[1,2]oxazolo[4,5-d]pyridazin-4(5H)-one] here?
**A.** Its EC50 is 0.229 µM.

**Q.** For `Cc1noc2c(-c3cccnc3Cl)nn(C(C)c3ccc(Cl)cc3)c(=O)c12` (stereo not drawn) [Example 7, 5-[1-(4-chlorophenyl)ethyl]-7-(2-chloropyridin-3-yl)-3-methyl[1,2]oxazolo[4,5-d]pyridazin-4(5H)-one], which EC50 is on record?
**A.** Its EC50 is 0.6 µM.

**Q.** How did the EC50 turn out when `Cc1noc2c(-c3cccnc3)nn(C(C)c3ccc(Cl)cc3)c(=O)c12` (stereo not drawn) [Example 109, 5-[1-(4-chlorophenyl)ethyl]-3-methyl-7-(pyridin-3-yl)[1,2]oxazolo[4,5-d]pyridazin-4(5H)-one] was run?
**A.** The EC50 was 1.21 µM.

**Q.** Which EC50 does the source give for `COc1ccc(C(N)=O)cc1-c1nn(C(C)c2ccc(Cl)cc2)c(=O)c2c(C)noc12` (stereo not drawn) [Example 59] here?
**A.** The EC50 was 0.017 µM.

**Q.** How did the EC50 turn out when `Cc1nn(C(C)c2ccc(Cl)cc2)c(=O)c2c(C)noc12` (stereo not drawn) [Example 114, 5-[1-(4-chlorophenyl)ethyl]-3,7-dimethyl[1,2]oxazolo[4,5-d]pyridazin-4(5H)-one] was run?
**A.** The EC50 was 3.8 µM.

**Q.** `COc1ccc(OC)c(-c2nn(Cc3ccc(Cl)cc3)c(=O)c3c(C4CC4)noc23)c1` [Example 47, 5-(4-chlorobenzyl)-3-cyclopropyl-7-(2,5-dimethoxyphenyl)[1,2]oxazolo[4,5-d]pyridazin-4(5H)-one] was tested. Which EC50 did it give?
**A.** Its EC50 is 0.578 µM.

**Q.** `Cc1noc2c(-c3cc(C(F)(F)F)ccc3N)nn(C(C)c3ccc(Cl)cc3)c(=O)c12` (stereo not drawn) [Example 11, 7-[2-amino-5-(trifluoromethyl)phenyl]-5-[1-(4-chlorophenyl)ethyl]-3-methyl[1,2]oxazolo[4,5-d]pyridazin-4(5H)-one] was tested. Which EC50 did it give?
**A.** The EC50 was greater than 10 µM.

**Q.** For `COc1ccc(NC(C)=O)cc1-c1nn(C(C)c2ccc(C(F)(F)F)cc2)c(=O)c2c(C)noc12` (stereo not drawn) [Example 103, N-[4-methoxy-3-(3-methyl-4-oxo-5-{(1)-1-[4-(trifluoromethyl)phenyl]ethyl}-4,5-dihydro[1,2]oxazolo[4,5-d]pyridazin-7-yl)phenyl]acetamide], which EC50 is on record?
**A.** Its EC50 is 0.439 µM.

**Q.** How did the EC50 turn out when `COc1ccc(NC(C)=O)cc1-c1nn([C@H](C)c2ccc(Cl)cc2)c(=O)c2c(C3CC3)noc12` [Example 3, N-(3-{5-[(1R)-1-(4-chlorophenyl)ethyl]-3-cyclopropyl-4-oxo-4,5-dihydro[1,2]oxazolo[4,5-d]pyridazin-7-yl}-4-methoxyphenyl)acetamide] was run?
**A.** The EC50 was greater than 10 µM.

**Q.** For `COc1ccc(-c2nn(Cc3ccc(Cl)cc3)c(=O)c3c(C)noc23)c(OC)c1` [Example 87, 5-(4-chlorobenzyl)-7-(2,4-dimethoxyphenyl)-3-methyl[1,2]oxazolo[4,5-d]pyridazin-4(5H)-one], which EC50 is on record?
**A.** Its EC50 is 1.03 µM.

**Q.** Which EC50 does the source give for `COc1ccc(C(=O)N(C)C)cc1-c1nn(C(C)c2ccc(Cl)cc2)c(=O)c2c(C)noc12` (stereo not drawn) [Example 38] here?
**A.** Its EC50 is 0.643 µM.

**Q.** How did the EC50 turn out when `CC(=O)Nc1cc(-c2nn(Cc3ccc(F)c(C(F)(F)F)c3)c(=O)c3c(C)noc23)ccc1F` [Example 61, N-(2-fluoro-5-{5-[4-fluoro-3-(trifluoromethyl)benzyl]-3-methyl-4-oxo-4,5-dihydro[1,2]oxazolo[4,5-d]pyridazin-7-yl}phenyl)acetamide] was run?
**A.** The EC50 was greater than 10 µM.

**Q.** For `COc1ccc(Cn2nc(-c3ccc(F)cc3)c3onc(C)c3c2=O)cc1C(F)(F)F` [Example 66, 7-(4-fluorophenyl)-5-[4-methoxy-3-(trifluoromethyl)benzyl]-3-methyl[1,2]oxazolo[4,5-d]pyridazin-4(5H)-one], which EC50 is on record?
**A.** Its EC50 is 2.79 µM.

**Q.** For `CCCc1noc2c(-c3cccc(NC(C)=O)c3)nn(Cc3ccc(Cl)cc3)c(=O)c12` [Example 91, N-{3-[5-(4-chlorobenzyl)-4-oxo-3-propyl-4,5-dihydro[1,2]oxazolo[4,5-d]pyridazin-7-yl]phenyl}acetamide], which EC50 is on record?
**A.** The EC50 was 2.12 µM.

**Q.** For `Cc1ccccc1-c1nn(Cc2ccc(Cl)cc2)c(=O)c2c(C)noc12` [Example 76, 5-(4-chlorobenzyl)-3-methyl-7-(2-methylphenyl)[1,2]oxazolo[4,5-d]pyridazin-4(5H)-one], which EC50 is on record?
**A.** The EC50 was 1.93 µM.

**Q.** How did the EC50 turn out when `Cc1noc2c(-c3ccccc3O)nn(C(C)c3ccc(Cl)cc3)c(=O)c12` (stereo not drawn) [Example 100, 5-[1-(4-chlorophenyl)ethyl]-7-(2-hydroxyphenyl)-3-methyl[1,2]oxazolo[4,5-d]pyridazin-4(5H)-one] was run?
**A.** The EC50 was 0.667 µM.

**Q.** How did the EC50 turn out when `COc1ccc(OC)c(-c2nn(CCc3ccc(Cl)cc3)c(=O)c3c(C)noc23)c1` [Example 10, 5-[2-(4-chlorophenyl)ethyl]-7-(2,5-dimethoxyphenyl)-3-methyl[1,2]oxazolo[4,5-d]pyridazin-4(5H)-one] was run?
**A.** Its EC50 is 1.06 µM.

**Q.** With `Cc1noc2c(-c3cccc(S(N)(=O)=O)c3)nn(C(C)c3ccc(Cl)cc3)c(=O)c12` (stereo not drawn) [Example 53, 3-{5-[1-(4-chlorophenyl)ethyl]-3-methyl-4-oxo-4,5-dihydro[1,2]oxazolo[4,5-d]pyridazin-7-yl}benzenesulfonamide] as the compound, how does the EC50 read?
**A.** The EC50 was 0.62 µM.

**Q.** For `Cc1noc2c(-c3cccc(F)c3)nn(Cc3ccc(Cl)cc3)c(=O)c12` [Example 23, 5-(4-chlorobenzyl)-7-(3-fluorophenyl)-3-methyl[1,2]oxazolo[4,5-d]pyridazin-4(5H)-one], which EC50 is on record?
**A.** Its EC50 is greater than 10 µM.

**Q.** `COCc1noc2c(-c3cc(OC)ccc3OC)nn(Cc3ccc(Cl)cc3)c(=O)c12` [Example 71, 5-(4-chlorobenzyl)-7-(2,5-dimethoxyphenyl)-3-(methoxymethyl)[1,2]oxazolo[4,5-d]pyridazin-4(5H)-one] was tested. Which EC50 did it give?
**A.** The EC50 was 2.21 µM.

**Q.** How did the EC50 turn out when `COc1ccc(NC(C)=O)cc1-c1nn(Cc2ccc(Cl)cc2)c(=O)c2c(C)noc12` [Example 45, N-{3-[5-(4-chlorobenzyl)-3-methyl-4-oxo-4,5-dihydro[1,2]oxazolo[4,5-d]pyridazin-7-yl]-4-methoxyphenyl}acetamide] was run?
**A.** The EC50 was 0.376 µM.

**Q.** With `Cc1noc2c(-c3cc(F)ccc3N)nn(C(C)c3ccc(Cl)cc3)c(=O)c12` (stereo not drawn) [Example 97, 7-(2-amino-5-fluorophenyl)-5-[1-(4-chlorophenyl)ethyl]-3-methyl[1,2]oxazolo[4,5-d]pyridazin-4(5H)-one] as the compound, how does the EC50 read?
**A.** Its EC50 is 1.85 µM.

**Q.** With `Cc1noc2c(-c3cccc(NS(C)(=O)=O)c3)nn(C(C)c3ccc(Cl)cc3)c(=O)c12` (stereo not drawn) [Example 24, N-(3-{5-[1-(4-chlorophenyl)ethyl]-3-methyl-4-oxo-4,5-dihydro[1,2]oxazolo[4,5-d]pyridazin-7-yl}phenyl)methanesulfonamide] as the compound, how does the EC50 read?
**A.** Its EC50 is 1.85 µM.

**Q.** For `Cc1noc2c(-c3cnc4cc[nH]c4c3)nn(C(C)c3ccc(Cl)cc3)c(=O)c12` (stereo not drawn) [Example 116, 5-[1-(4-chlorophenyl)ethyl]-3-methyl-7-(1H-pyrrolo[3,2-b]pyridin-6-yl)[1,2]oxazolo[4,5-d]pyridazin-4(5H)-one], which EC50 is on record?
**A.** Its EC50 is 0.855 µM.

**Q.** Which EC50 does the source give for `CC(=O)Nc1cccc(-c2nn(Cc3ccc(C(F)(F)F)cc3)c(=O)c3c(C)noc23)c1` [Example 57, N-(3-{3-methyl-4-oxo-5-[4-(trifluoromethyl)benzyl]-4,5-dihydro[1,2]oxazolo[4,5-d]pyridazin-7-yl}phenyl)acetamide] here?
**A.** The EC50 was 3.33 µM.

**Q.** How did the EC50 turn out when `Cc1noc2c(-c3cncc(F)c3)nn(C(C)c3ccc(Cl)cc3)c(=O)c12` (stereo not drawn) [Example 22, 5-[1-(4-chlorophenyl)ethyl]-7-(5-fluoropyridin-3-yl)-3-methyl[1,2]oxazolo[4,5-d]pyridazin-4(5H)-one] was run?
**A.** The EC50 was 2.69 µM.

**Q.** How did the EC50 turn out when `COc1ccc(OC)c(-c2nn([C@H](C)c3ccc(C(F)(F)F)cc3)c(=O)c3c(C)noc23)c1` [Example 125, 7-(2,5-dimethoxyphenyl)-3-methyl-5-{(1R)-1-[4-(trifluoromethyl)phenyl]ethyl}[1,2]oxazolo[4,5-d]pyridazin-4(5H)-one] was run?
**A.** Its EC50 is 0.582 µM.

**Q.** How did the EC50 turn out when `Cc1noc2c(-c3cccc(C(N)=O)c3)nn(C(C)c3ccc(Cl)cc3)c(=O)c12` (stereo not drawn) [Example 106, 3-{5-[1-(4-chlorophenyl)ethyl]-3-methyl-4-oxo-4,5-dihydro[1,2]oxazolo[4,5-d]pyridazin-7-yl}benzamide] was run?
**A.** The EC50 was 0.847 µM.

**Q.** How did the EC50 turn out when `Cc1nn([C@@H](C)c2ccc(Cl)cc2)c(=O)c2c(C)noc12` (single isomer, unassigned) [Example 31] was run?
**A.** The EC50 was 1.81 µM.

**Q.** With `CCNC(=O)c1ccc(OC)c(-c2nn(C(C)c3ccc(Cl)cc3)c(=O)c3c(C)noc23)c1` (stereo not drawn) [Example 131] as the compound, how does the EC50 read?
**A.** The EC50 was 0.453 µM.

**Q.** With `CC(=O)Nc1cccc(-c2nn(Cc3ccc(Cl)cc3)c(=O)c3c(C4CC4)noc23)c1` [Example 51, N-{3-[5-(4-chlorobenzyl)-3-cyclopropyl-4-oxo-4,5-dihydro[1,2]oxazolo[4,5-d]pyridazin-7-yl]phenyl}acetamide] as the compound, how does the EC50 read?
**A.** The EC50 was 1.5 µM.

**Q.** For `CC(=O)Nc1cc(-c2nn(Cc3ccc(Cl)cc3)c(=O)c3c(C)noc23)ccc1F` [Example 8], which EC50 is on record?
**A.** Its EC50 is 2.11 µM.
